In patent US20160303181A1, “SYNERGISTIC COMBINATION OF ALANINE-GLUTAMINE, HYALURONIC ACID AND OAT EXTRACT AND THE USE THEREOF IN A COMPOSITION INTENDED FOR HEALING WOUNDS AND REPAIRING SKIN LESIONS” (PIERRE FABRE DERMO-COSMETIQUE, priority 2013, published 2016):
Marks after values point to notes of the source that are not given here. Residues, ends and D or L forms follow the SMILES beside them.

Test system: HaCaT human keratinocyte line
Experiment: Migration of keratinocytes, Oris Cell Migration Assay
Assay type: cell-based
Settings: DMEM 0% FCS, 24 hours; for effect on the migration of keratinocytes (in words): oat seedling extract 10 or 30 μg/ml, hyaluronate 20 or 60 μg/ml, L-alanyl-L-glutamine 40 or 90 μg/ml, EGF 33 ng/ml; for % Migration (percentage activity compared to the control 0% FCS): control = 100
Excerpt: The objective of this test was to evaluate the effect of hyaluronic acid, oat seedling extract, L-alanyl-L-glutamine and combinations thereof on the migration of keratinocytes using the Oris Cell Migration Assay kit (Platypus Technologies).
The spontaneously immortalised HaCaT human keratinocyte line, frequently cited as reference model in the literature was used.
The protocol used for the study of cell migration is based on the use of a 96 well kit, the Oris Cell Migration Assay (Platypus technologies—TEBU), enabling the miniaturisation and the quantification of this cellular process.
The principle of this test consists in studying cell migration towards the centre of the wells of the 96 well plate. It consists in placing a stopper in the wells, in order to create a 2 mm diameter detection zone. Then removing the stoppers once cells have properly adhered to the surface around them, and thus to enable cells to migrate towards the detection zone. The plates without stoppers and with the active ingredients are incubated at 37° C. for 24 hours in DMEM (Dulbecco's Modified Eagle Medium) 0% FCS (foetal calf serum). The quantity of cells situated in the zone where the stopper was is analysed in order to evaluate the migration of the cells. A mask makes it possible to visualise and to count uniquely the cells situated in this zone. For each condition, the average is determined on 6 to 8 wells.
The cells were incubated in FCS-free medium.
• EGF: 33 ng/ml, • oat seedling extract: 10 or 30 μg/ml,
Filtering. Concentration by drying until a dry extract is obtained. • sodium hyaluronate (molecular weight 250-450 kDa): 20 or 60 μg/ml, • L-alanyl-L-glutamine: 40 or 90 μg/ml.
The Results are Expressed: • In fluorescence intensity (FI), proportional to the quantity of cells having migrated. • In percentage activity compared to the control 0% FCS.
Statistical analyses by the Dunnett test were carried out on the crude migration values. This test then gives “p value” values characterising the significance of the results obtained for different conditions. The degree of significance was fixed at […]

[1] = Table 1, lower concentrations: EGF 33 ng/ml, ES 10 μg/ml, AH 20 μg/ml, A-G 40 μg/ml, control 1850
[2] = Table 1, lower concentrations: EGF 33 ng/ml, ES 10 μg/ml, AH 20 μg/ml, A-G 40 μg/ml
[3] = Table 2, higher concentrations: EGF 33 ng/ml, ES 30 μg/ml, AH 60 μg/ml, A-G 90 μg/ml, control 1729 ± 384
[4] = Table 2, higher concentrations: EGF 33 ng/ml, ES 30 μg/ml, AH 60 μg/ml, A-G 90 μg/ml

EGF: positive control of the migration experiments, 33 ng/ml
effect on the migration of keratinocytes (in words): induces the migration of keratinocytes | Average ± SD (fluorescence intensity, proportional to the quantity of cells having migrated) [1]: 2569± | % Migration (percentage activity compared to the control 0% FCS) [2]: 216% | Average ± SD (fluorescence intensity, proportional to the quantity of cells having migrated) [3]: 3553 ± 1556 | % Migration (percentage activity compared to the control 0% FCS) [4]: 301 * %

C[C@H](N)C(=O)N[C@@H](CCC(N)=O)C(=O)O [A-G, L-alanyl-L-glutamine] (H-Ala-Gln-OH)
effect on the migration of keratinocytes (in words): induces the migration of keratinocytes in a concentration-dependent manner | Average ± SD (fluorescence intensity, proportional to the quantity of cells having migrated) [1]: 2471 ± 788 | % Migration (percentage activity compared to the control 0% FCS) [2]: 200% | Average ± SD (fluorescence intensity, proportional to the quantity of cells having migrated) [3]: 2586 ± 1092 | % Migration (percentage activity compared to the control 0% FCS) [4]: 194%

sodium hyaluronate [AH]
effect on the migration of keratinocytes (in words): did not have any significant effect on the migration of keratinocytes | Average ± SD (fluorescence intensity, proportional to the quantity of cells having migrated) [1]: 1939 ± 438 | % Migration (percentage activity compared to the control 0% FCS) [2]: 114% | Average ± SD (fluorescence intensity, proportional to the quantity of cells having migrated) [3]: 1735 ± 488 | % Migration (percentage activity compared to the control 0% FCS) [4]: 101%
